Test results reported in the supplement of paper PMC10307832.

Assays:
Assay in all cases: relative viability (nuclei count vs DMSO), 5 days (fraction); higher = more cells survive
[1] = compound: CC(=O)Nc1cccc(-n2c(=O)n(C3CC3)c(=O)c3c(Nc4ccc(I)cc4F)n(C)c(=O)c(C)c32)c1 [Trametinib] + COc1cccc2cc(-c3nc([C@H]4CC[C@H](C(=O)O)CC4)n4ncnc(N)c34)[nH]c12 [OSI-027] (partner 0.5 µM)
Procedure, shortened: (§1)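 One day after seeding in 1536-well plates, lung cancer cell lines were dosed by pin tool. Dosing was either single-drug or a fixed anchor-drug dose plus five library-drug doses (not always all listed) in √10 steps. After 5 days, nuclei were stained in one fix-and-stain step and counted on 4× images, and relative viability is the nuclei count of treated wells over that of vehicle wells, given as the median of duplicate plates.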

[2] = compound: CC(=O)Nc1cccc(-n2c(=O)n(C3CC3)c(=O)c3c(Nc4ccc(I)cc4F)n(C)c(=O)c(C)c32)c1 [Trametinib] + O=C(CCCCCCC(=O)Nc1ccccc1)NO [Vorinostat] (partner 1 µM)
Procedure, shortened: as §1

[3] = compound: CN1C=C(C2=CC=CC=C21)/C=C\3/C4=C(C=CC=N4)NC3=O + CS(=O)(=O)N1CCN(Cc2cc3nc(-c4cccc5[nH]ncc45)nc(N4CCOCC4)c3s2)CC1 [Pictilisib] (partner 1 µM)
Procedure, shortened: as §1

[4] = compound: CN1C=C(C2=CC=CC=C21)/C=C\3/C4=C(C=CC=N4)NC3=O + C[C@@H](Oc1cc(-c2cnn(C3CCNCC3)c2)cnc1N)c1c(Cl)ccc(F)c1Cl [Crizotinib] (partner 1 µM)
Procedure, shortened: as §1

Cell Line	relative viability ([1]; first compound 0.0025 µM)	relative viability ([1]; first compound 0.007906 µM)	relative viability ([1]; first compound 0.025 µM)	relative viability ([1]; first compound 0.07906 µM)	relative viability ([1]; first compound 0.25 µM)	relative viability ([2]; first compound 0.0025 µM)	relative viability ([2]; first compound 0.007906 µM)	relative viability ([2]; first compound 0.025 µM)	relative viability ([2]; first compound 0.07906 µM)	relative viability ([2]; first compound 0.25 µM)	relative viability ([3]; first compound 0.02 µM)	relative viability ([3]; first compound 0.06325 µM)	relative viability ([3]; first compound 0.2 µM)	relative viability ([3]; first compound 0.6325 µM)	relative viability ([3]; first compound 2 µM)	relative viability ([4]; first compound 0.02 µM)	relative viability ([4]; first compound 0.06325 µM)	relative viability ([4]; first compound 0.2 µM)	relative viability ([4]; first compound 0.6325 µM)	relative viability ([4]; first compound 2 µM)
NCI-H661	0.686	0.595	0.51	0.522	0.389	0.742	0.753	0.782	0.782	0.724	0.399	0.418	0.325	0.339	0.375	1.07	1.01	1.11	1.04	1.14
CAL-12T	0.543	0.333	0.224	0.353	0.193	0.728	0.637	0.394	0.41	0.265	0.556	0.394	0.26	0.447	0.326	0.552	0.654	0.549	0.81	0.743
HARA	0.575	0.359	0.23	0.328	0.0752	0.387	0.403	0.298	0.251	0.154	0.55	0.391	0.407	0.254	0.379	0.975	0.958	0.933	1.02	1.09
NCI-H596	0.531	0.62	0.407	0.487	0.249	0.6	0.555	0.436	0.427	0.263	0.333	0.322	0.421	0.392	0.396	0.932	1.01	0.936	0.89	0.891
LU99A	0.301	0.294	0.287	0.326	0.297	0.546	0.503	0.291	0.397	0.254	0.344	0.282	0.338	0.316	0.315	0.522	0.479	0.607	0.568	0.603
LC-2-ad	0.853	0.57	0.513	0.516	0.416	0.648	0.665	0.663	0.547	0.472	0.356	0.475	0.434	0.446	0.401	0.439	0.468		0.409	0.686
NCI-H1650	0.632	0.604	0.534	0.451	0.204	0.502	0.625	0.572	0.45	0.288	0.539	0.561	0.436	0.505	0.573	0.908	0.889	0.856	1.06	1.05
NCI-H1915	0.538	0.314	0.293	0.21	0.159	0.558	0.575	0.466	0.368	0.289	0.973	0.871	0.831	0.961	0.97	0.767	0.873	0.87	1.07	0.973
ABC-1	0.403	0.439	0.28	0.266	0.225	0.798	0.898	0.562	0.613	0.349	0.774	0.681	0.682	0.663	0.608	1.03	0.988	1.03	1.04	1.43
HCC-44	0.487	0.249	0.424	0.311	0.183	1.08	1.06	1.09	0.909	0.808	0.47	0.558	0.475	0.564	0.485	0.793	0.73	0.722	0.712	0.715
HCC-78	0.366	0.361	0.313	0.343	0.333	0.447	0.377	0.382	0.433	0.414	0.199	0.183	0.206	0.178	0.171	0.335	0.26	0.326	0.337	0.372
LXF-289	0.766	0.656	0.452	0.453	0.243	0.711	0.587	0.538	0.529	0.55	0.811	0.764	0.793	0.77	0.806	0.775	0.785	0.881	0.849	0.895
201T	0.707	0.642	0.633	0.443	0.505	0.945	0.833	0.736	0.732	0.785	0.64	0.649	0.629	0.626	0.613	1.01	1.04	1.05	1.12	1.01
NCI-H1734	0.591	0.517	0.404	0.492	0.278	0.812	0.802		0.747	0.356	0.432	0.454		0.466	0.45	0.665	0.677		0.696	0.744
NCI-H1623	0.361	0.35	0.326	0.28	0.311															
NCI-H2126	0.671	0.506	0.375	0.535	0.488	0.701	0.514	0.353	0.6	0.446	0.486	0.492	0.431	0.431	0.415	0.994	1	1.06	1.03	1.02
LOU-NH91	0.735	0.654	0.568	0.53	0.478	0.893	0.802	0.766	0.809	0.411	0.466	0.455	0.481	0.498	0.491	0.74	0.649	0.672	0.709	0.724
NCI-H1792	0.565	0.62	0.745	0.618	0.51						0.247	0.223	0.214		0.275	0.759	0.999	0.87		0.898
NCI-H1651	0.54	0.702	0.443	0.603	0.469	0.546	0.546	0.466	0.505	0.505	0.495	0.706	0.628	0.524	0.728	0.804	0.905	0.876	0.819	0.895
A549											0.544	0.474	0.465	0.46	0.529	0.631	0.755	0.724	0.828	0.75

Cell Line	relative viability ([1]; first compound 0.0025 µM)	relative viability ([1]; first compound 0.007906 µM)	relative viability ([1]; first compound 0.025 µM)	relative viability ([1]; first compound 0.07906 µM)	relative viability ([1]; first compound 0.25 µM)	relative viability ([2]; first compound 0.0025 µM)	relative viability ([2]; first compound 0.007906 µM)	relative viability ([2]; first compound 0.025 µM)	relative viability ([2]; first compound 0.07906 µM)	relative viability ([2]; first compound 0.25 µM)	relative viability ([3]; first compound 0.02 µM)	relative viability ([3]; first compound 0.06325 µM)	relative viability ([3]; first compound 0.2 µM)	relative viability ([3]; first compound 0.6325 µM)	relative viability ([3]; first compound 2 µM)	relative viability ([4]; first compound 0.02 µM)	relative viability ([4]; first compound 0.06325 µM)	relative viability ([4]; first compound 0.2 µM)	relative viability ([4]; first compound 0.6325 µM)	relative viability ([4]; first compound 2 µM)
HCC-366	0.684	0.763	0.371	0.414	0.201	0.354	0.291	0.357	0.356	0.106	0.114	0.121	0.118	0.113	0.104	0.351	0.387	0.579	0.472	0.398
EKVX	0.667	0.532	0.379	0.473	0.426	0.63	0.442	0.365	0.405	0.321	0.374	0.384	0.334	0.345	0.361	0.835	0.927	0.913	0.792	0.876
NCI-H1993	0.545	0.606	0.624	0.657	0.699	0.681	0.553	0.339	0.576	0.304	0.743	0.772	0.826	0.809	0.804	0.726	0.816	0.741	0.868	0.87
NCI-H522	0.592	0.653	0.595	1.57	0.587	0.823	0.798	0.836	0.763	0.671										
NCI-H1703											0.232	0.245	0.257	0.283	0.23	0.724	0.783	0.556	0.699	0.604
NCI-H23	0.588	0.429	0.268	0.374	0.158	0.501	0.537	0.277	0.323	0.126	0.5	0.502		0.451	0.485	0.453	0.504		0.62	0.624
HCC-827	0.702	0.671	0.529	0.392	0.429	0.903	0.876	0.71	0.677	0.502	1.07	0.996		0.772	1	0.835	0.916		0.96	0.978
PC-3 [JPC-3]	0.803	0.635	0.675	0.595	0.581	0.82	0.722	0.557		0.53	0.703	0.691	0.665	0.778	0.758	0.878	0.949	0.954	0.96	0.966
NCI-H1355	0.344	0.327	0.241	0.263	0.242	0.605	0.524	0.341	0.377	0.291	0.365	0.332	0.287	0.238	0.372	0.909	0.97	0.992	0.675	0.819
IA-LM						0.744	0.604	0.255	0.125	0.12	0.273	0.264		0.347	0.363	0.732	0.724	0.668	0.615	0.521
SW 900	0.629	0.539	0.424	0.428	0.167	0.44	0.545	0.439	0.456	0.138										
NCI-H1648		0.28	0.273	0.279	0.272	0.422	0.479	0.488	0.3	0.376										
NCI-H1563	0.745	0.819	0.772	0.884	0.623						0.587	0.618	0.641	0.747	0.682	0.871	0.897	0.736	0.893	0.971
NCI-H2342	0.56	0.552		0.471	0.577	0.727	0.793	0.488	0.685	0.68										
Calu-6											0.841	0.776	0.9	0.936	0.897	0.675	0.783	0.815	0.772	0.816
NCI-H1395	0.693	0.617	0.552	0.468	0.404	0.78	0.627	0.593	0.415	0.384	0.605	0.581		0.602	0.577					
NCI-H1793	0.245	0.236	0.204	0.199	0.199	0.579	0.432	0.317	0.317	0.221	0.258	0.314	0.257	0.282	0.304					
NCI-H1299											0.567	0.811	0.8	0.824	0.894	0.937	0.945	0.911	1.07	0.901
EBC-1											0.242	0.256	0.283	0.287	0.309	0.233	0.182	0.192	0.183	0.207
